Where two headings read alike, the source gives them in different places.

Common to all, as to type: cell-based
In one experiment the test system is MRC-5 cell line. Kind of experiment: Cell viability assay for MRC-5 cell line (EZ-Cytox cytotoxicity experiment). The settings on record: Homo sapiens, MRC5, 120 h, MRC-5 normal cell line, 5 days. As for the experimental part:
4. Cell Viability Assay for MRC-5 Cell Line
(1) Culture of MRC-5 Cell Line
Passage of cultured cells was maintained within P15.
(2) Treatment of Compounds of the Present Invention
Then, it was cultured in 37° C.
(3) Cytotoxicity Experiment
CO2 incubator for 4 hours.

The next experiment relates to H526 cell line. Nature of the experiment: Cell viability assay for NCI-H526 cell line (EZ-Cytox). The settings on record: Homo sapiens, NCI-H526, 120 h; H526 cells, 3-fold dilutions 3000 nM to 0.46 nM, 5 days. The procedure: (1) Culture of NCI-H526 Cell Line
(2) Treatment of Compounds of the Present Invention and Method of Cell Viability Assay
After treating the compound to each well to make the total volume of 200 μL, it was cultured in a CO2 incubator (Thermo Fisher Science, Cat. No. 4111) for 5 days.
The absorbance of the completely cultured sample was measured by setting the wavelength of a plate reader (BMG Labtech, CLARIOstar Plus) to […], and was measured after shaking for 3 minutes in a plate reader before measurement.
In Table 3, Activity represents IC50 value of each Exemplary Compound treatment group to H526 cell line (A: <30 nM, B: <50 nM, C: <100 nM, D: <200 nM, E: <400 nM).

For another experiment, the target named is T1, PLK1 (Homo sapiens, UniProt P53350).
T1 construct: endogenous in cells; host or cells: HeLa LgBit (Plk1-HiBit KI): HeLa stably expressing LgBit, with HiBit knocked in at the endogenous Plk1 locus by CRISPR/Cas9
Kind of experiment: Luciferase assay for PLK1 in HeLa LgBit (Plk1-HiBit KI) cell line. The settings on record: compound 300 nM, luminescence after 9 hours. The procedure: 2. Luciferase Assay for PLK1
(1) Preparation and Culture of HeLa LgBit (Plk1-HiBit KI) Cell Line
A HeLa cell line in which the LgBit vector was transfected and expressed stably was prepared. Then, after constructing gRNA and donor to express the HiBit amino acid sequence behind the C-terminal of the Plk1 gene, which was inherent in the cell, it was inserted into the cell together with a vector capable of expressing CRISPR/Cas9. Only the cells in which the insertion was completed and knock-in had progressed were selected, sub-cultured and used.
(2) Treatment of Compounds of the Present Invention and Method of Luciferase Assay
In the case of HeLa LgBit (Plk1-HiBit KI), the compounds were treated after being released after thymidine block, and the process was as follows. Thymidine (Sigma-Aldrich Cat. No. T9250-5G) was completely dissolved in DW and used in the experiment. For thymidine block, the products were treated with 2 mM of thymidine and then incubated for 24 hours. For release and chemical treatment, the medium was suctioned and washed with 1×PBS. TrypLE™ was added and incubated in 37° C. CO2 incubator for 5 min. Cells neutralized by adding complete media were counted through a counter. For each well of a 96-well culture plate (SPL), 3.3×10^4 cells and a total medium volume of 150 μL were seeded and incubated in a CO2 incubator.
Each cell line was incubated in a CO2 incubator for 18 hours, and Endurazine was added to each well to make up 4% of the total volume. After adding the compound of the present invention in a 96-well white plate (SPL) to a concentration of 300 nM, the wavelength of the plate reader (BMG Labtech, CLARIOstar Plus) was set to […], and then the luminescence was tracked in real time.
In Table 2, Activity represents the ratio of the luminescence value of each Exemplary Compound treatment group to DMSO treatment group (+++: <0.3, ++<0.6, +<0.7).
On the technique in general: With HiBiT, luminescence reflects the tagged protein that the partner subunit can reach.

Where [1] appears, read: highest concentration 10000 nM, N.D. = no cytotoxicity until 10 μM, read-out: Activity: IC50 value to MRC-5 cell line, N.D. cells.

T1 sequence (P53350 whole entry): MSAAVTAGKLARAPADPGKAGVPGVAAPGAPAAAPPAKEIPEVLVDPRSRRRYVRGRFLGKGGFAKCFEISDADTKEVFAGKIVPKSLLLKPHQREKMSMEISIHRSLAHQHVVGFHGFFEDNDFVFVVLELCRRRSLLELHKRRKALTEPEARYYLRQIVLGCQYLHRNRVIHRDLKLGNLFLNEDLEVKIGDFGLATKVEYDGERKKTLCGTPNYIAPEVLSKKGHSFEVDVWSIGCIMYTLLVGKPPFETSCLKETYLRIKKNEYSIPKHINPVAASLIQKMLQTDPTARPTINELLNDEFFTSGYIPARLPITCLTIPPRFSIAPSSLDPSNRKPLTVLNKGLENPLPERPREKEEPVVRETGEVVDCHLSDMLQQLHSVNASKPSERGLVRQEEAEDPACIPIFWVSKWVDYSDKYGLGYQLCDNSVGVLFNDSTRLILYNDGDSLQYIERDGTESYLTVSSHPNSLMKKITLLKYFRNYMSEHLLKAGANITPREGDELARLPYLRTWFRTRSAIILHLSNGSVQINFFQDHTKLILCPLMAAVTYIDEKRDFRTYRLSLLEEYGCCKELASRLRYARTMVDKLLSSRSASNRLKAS

As to `COc1cc(C(=O)NN2CCC(CCN3CCN(c4cccc(C(=O)NC5CCC(=O)NC5=O)c4)CC3)CC2)ccc1Nc1ncc2c(n1)N(C1CCCC1)CC(F)(F)C(=O)N2C` (centres unmarked) [Compound 10, 4-((9-cyclopentyl-7,7-difluoro-5-methyl-6-oxo-6,7,8,9-tetrahydro-5H-pyrimido[4,5-b][1,4]diazepin-2-yl)amino)-N-(4-(2-(4-(3-((2,6-dioxopiperidin-3-yl)carbamoyl)phenyl)piperazin-1-yl)ethyl)piperidin-1-yl)-3-methoxybenzamide], the IC50 with MRC-5 cell line (setting [1]) was over 10000 nM; in the experiment with H526 cell line, under 30 nM. Further, the “Activity: ratio of the luminescence value of each Exemplary Compound treatment group to DMSO treatment group” value (“Activity: ratio” below) on PLK1 is “++ (++<0.6)”.
Turning to `COc1cc(C(=O)NC2CC3(CCN(CC4CCN(c5c(F)cc(N(C)C6CCC(=O)NC6=O)cc5F)CC4)CC3)C2)ccc1Nc1ncc2c(n1)N(C(C)C)CC(F)(F)C(=O)N2C` (centres unmarked) [Compound 29, 4-((7,7-difluoro-9-isopropyl-5-methyl-6-oxo-6,7,8,9-tetrahydro-5H-pyrimido[4,5-b][1,4]diazepin-2-yl)amino)-N-(7-((1-(4-((2,6-dioxopiperidin-3-yl)(methyl)amino)-2,6-difluorophenyl)piperidin-4-yl)methyl)-7-azaspiro[3.5]nonan-2-yl)-3-methoxybenzamide], the IC50 with MRC-5 cell line (3-fold dilutions 10000 nM to 1.52 nM, Exemplary Compounds, numeric values, read-out: Activity: IC50 value (nM) to MRC-5 cell line) was 18500 nM; in the experiment on H526 cell line it was under 50 nM. In addition, the “Activity: ratio” value at PLK1 is given as “++ (++<0.6)”.
Take `COc1cc(C(=O)NN2CCC(CN3CCN(c4c(F)cc(NC5CCC(=O)NC5=O)cc4F)CC3)CC2)ccc1Nc1ncc2c(n1)N(C(C)C)CC(F)(F)C(=O)N2C` (centres unmarked) [Compound 18, 4-((7,7-difluoro-9-isopropyl-5-methyl-6-oxo-6,7,8,9-tetrahydro-5H-pyrimido[4,5-b][1,4]diazepin-2-yl)amino)-N-(4-((4-(4-((2,6-dioxopiperidin-3-yl)amino)-2,6-difluorophenyl)piperazin-1-yl)methyl)piperidin-1-yl)-3-methoxybenzamide]: the IC50 in the experiment on MRC-5 cell line (setting [1]) was over 10000 nM; with H526 cell line, under 30 nM. The “Activity: ratio” value at PLK1 was “+ (+<0.7)”.
The like results for `COc1cc(C(=O)NN2CCC(CCN3CCN(c4cccc(C(=O)NC5CCC(=O)NC5=O)c4)CC3)C2)ccc1Nc1ncc2c(n1)N(C1CCCC1)CC(F)(F)C(=O)N2C` (centres unmarked) [Compound 11, 4-((9-cyclopentyl-7,7-difluoro-5-methyl-6-oxo-6,7,8,9-tetrahydro-5H-pyrimido[4,5-b][1,4]diazepin-2-yl)amino)-N-(3-(2-(4-(3-((2,6-dioxopiperidin-3-yl)carbamoyl)phenyl)piperazin-1-yl)ethyl)pyrrolidin-1-yl)-3-methoxybenzamide] were, in that order, over 10000 nM, under 30 nM and “++ (++<0.6)”.
As for `COc1cc(C(=O)NN2CCC(CN3CCN(c4ccc(NC5CCC(=O)NC5=O)cc4F)CC3)CC2)ccc1Nc1ncc2c(n1)N(C(C)C)CC(F)(F)C(=O)N2C` (centres unmarked) [Compound 17, 4-((7,7-difluoro-9-isopropyl-5-methyl-6-oxo-6,7,8,9-tetrahydro-5H-pyrimido[4,5-b][1,4]diazepin-2-yl)amino)-N-(4-((4-(4-((2,6-dioxopiperidin-3-yl)amino)-2-fluorophenyl)piperazin-1-yl)methyl)piperidin-1-yl)-3-methoxybenzamide], the IC50 in the experiment with MRC-5 cell line (setting [1]) is over 10000 nM; in the experiment with H526 cell line, under 50 nM. Also, the “Activity: ratio” value on PLK1 is “++ (++<0.6)”.
In the case of `COc1cc(C(=O)NC2CCN(C(=O)CCN3CCN(c4ccc(C(=O)NC5CCC(=O)NC5=O)cc4)CC3)CC2)ccc1Nc1ncc2c(n1)N(C1CCCC1)CC(F)(F)C(=O)N2C` (centres unmarked) [Compound 4, 4-((9-cyclopentyl-7,7-difluoro-5-methyl-6-oxo-6,7,8,9-tetrahydro-5H-pyrimido[4,5-b][1,4]diazepin-2-yl)amino)-N-(1-(3-(4-(4-((2,6-dioxopiperidin-3-yl)carbamoyl)phenyl)piperazin-1-yl)propanoyl)piperidin-4-yl)-3-methoxybenzamide], the “Activity: ratio” value at PLK1 is recorded as “+ (+<0.7)”.
Still for that read-out and setting: to `COc1cc(C(=O)NN2CCC(N3CC4(CCN(c5cccc6c5n(C)c(=O)n6C5CCC(=O)NC5=O)CC4)C3)CC2)ccc1Nc1ncc2c(n1)N(C(C)C)CC(F)(F)C(=O)N2C` (centres unmarked) [Compound 41, 4-((7,7-difluoro-9-isopropyl-5-methyl-6-oxo-6,7,8,9-tetrahydro-5H-pyrimido[4,5-b][1,4]diazepin-2-yl)amino)-N-(4-(7-(1-(2,6-dioxopiperidin-3-yl)-3-methyl-2-oxo-2,3-dihydro-1H-benzo[d]imidazol-4-yl)-2,7-diazaspiro[3.5]nonan-2-yl)piperidin-1-yl)-3-methoxybenzamide] belongs “+ (+<0.7)”.
`COc1cc(C(=O)NC2CC3(CCN(CC4CCN(c5ccc(N(C)C6CCC(=O)NC6=O)cc5)CC4)CC3)C2)ccc1Nc1ncc2c(n1)N(C(C)C)CC(F)(F)C(=O)N2C` (centres unmarked) [Compound 27, 4-((7,7-difluoro-9-isopropyl-5-methyl-6-oxo-6,7,8,9-tetrahydro-5H-pyrimido[4,5-b][1,4]diazepin-2-yl)amino)-N-(7-((1-(4-((2,6-dioxopiperidin-3-yl)(methyl)amino)phenyl)piperidin-4-yl)methyl)-7-azaspiro[3.5]nonan-2-yl)-3-methoxybenzamide] returned an IC50 with H526 cell line of under 30 nM. At PLK1, the “Activity: ratio” value was “+++ (+++: <0.3)”.
With `COc1cc(C(=O)NC2CC3(CCN(CC4CCN(c5ccc6c(N7CCC(=O)NC7=O)nn(C)c6c5)CC4)CC3)C2)ccc1Nc1ncc2c(n1)N(C1CCCC1)CC(F)(F)C(=O)N2C` [Compound 40, 4-((9-cyclopentyl-7,7-difluoro-5-methyl-6-oxo-6,7,8,9-tetrahydro-5H-pyrimido[4,5-b][1,4]diazepin-2-yl)amino)-N-(7-((1-(3-(2,4-dioxotetrahydropyrimidin-1 (2H)-yl)-1-methyl-1H-indazol-6-yl)piperidin-4-yl)methyl)-7-azaspiro[3.5]nonan-2-yl)-3-methoxybenzamide], the IC50 in the experiment on H526 cell line is under 30 nM.
In turn, `COc1cc(C(=O)NN2CCC(N3CC4(CCN(c5ccc(N(C)C6CCC(=O)NC6=O)cc5)CC4)C3)CC2)ccc1Nc1ncc2c(n1)N(C(C)C)CC(F)(F)C(=O)N2C` (centres unmarked) [Compound 31, 4-((7,7-difluoro-9-isopropyl-5-methyl-6-oxo-6,7,8,9-tetrahydro-5H-pyrimido[4,5-b][1,4]diazepin-2-yl)amino)-N-(4-(7-(4-((2,6-dioxopiperidin-3-yl)(methyl)amino)phenyl)-2,7-diazaspiro[3.5]nonan-2-yl)piperidin-1-yl)-3-methoxybenzamide] yielded an IC50 in the experiment on H526 cell line of under 100 nM. In addition, at PLK1, the “Activity: ratio” value is given as “++ (++<0.6)”.
As for `COc1cc(C(=O)NC2CCN(C(=O)CCN3CCN(c4ccc(C(=O)NC5CCC(=O)NC5=O)nc4)CC3)CC2)ccc1Nc1ncc2c(n1)N(C1CCCC1)CC(F)(F)C(=O)N2C` (centres unmarked) [Compound 7, 5-(4-(3-(4-(4-((9-cyclopentyl-7,7-difluoro-5-methyl-6-oxo-6,7,8,9-tetrahydro-5H-pyrimido[4,5-b][1,4]diazepin-2-yl)amino)-3-methoxybenzamido)piperidin-1-yl)-3-oxopropyl)piperazin-1-yl)-N-(2,6-dioxopiperidin-3-yl)picolinamide], at PLK1, the “Activity: ratio” value is “+ (+<0.7)”.

For orientation: IC50 means the midpoint of a concentration-inhibition curve.

The record behind these values is US20250101025A1, “NOVEL PLK1 DEGRADATION INDUCING COMPOUND” (UPPTHERA, INC., priority 2021, published 2025).
